{"source": "patent US10736937B2", "about": "(priority 2014, dated 2020)", "origin": "cited, not measured here", "system": "Streptococcus pneumoniae", "details": "mucosal administration; co-administrated with the pathogen or 2 to 24 h before bacterial challenge", "data": [{"substance": "flagellin", "values": [{"measurement": "protection against Streptococcus pneumoniae lung infection", "result": "protect"}]}]}
